Measurements from PubChem BioAssay (NCI).
Several values for one entry are separate records, joined by “and”; a condition that tells them apart may be missing. Equal values may be shown once.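 Where inhibition never reached the appropriate level, the endpoint shown equals the highest concentration tested. Otherwise, values were interpolated linearly from a five-concentration, 48-hour dose response in 96-well plates. GI50 marks 50% less growth. The concentration for full growth arrest is given as TGI.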

Experiments:
Test in all cases: growth of human tumour cells (NCI), 48 h
HCT-15 colon = test system: HCT-15 colon
HOP-62 NSCLC = test system: HOP-62 NSCLC
K-562 leukemia = test system: K-562 leukemia
RPMI-8226 leukemia = test system: RPMI-8226 leukemia
RXF 393 renal = test system: RXF 393 renal
SF-268 CNS = test system: SF-268 CNS
SN12C renal = test system: SN12C renal
SNB-75 CNS = test system: SNB-75 CNS
TK-10 renal = test system: TK-10 renal
UO-31 renal = test system: UO-31 renal

| SMILES | TGI (HCT-15 colon) | TGI (HOP-62 NSCLC) | TGI (K-562 leukemia) | TGI (RPMI-8226 leukemia) | TGI (RXF 393 renal) | TGI (SF-268 CNS) | TGI (SN12C renal) | TGI (SNB-75 CNS) | TGI (TK-10 renal) | TGI (UO-31 renal) | GI50 (HCT-15 colon) | GI50 (HOP-62 NSCLC) | GI50 (K-562 leukemia) | GI50 (RPMI-8226 leukemia) | GI50 (RXF 393 renal) | GI50 (SF-268 CNS) | GI50 (SN12C renal) | GI50 (SNB-75 CNS) | GI50 (TK-10 renal) | GI50 (UO-31 renal) |
| --- | --- | --- | --- | --- | --- | --- | --- | --- | --- | --- | --- | --- | --- | --- | --- | --- | --- | --- | --- | --- |
| CC1(C)CCC(C)(C)c2c1ccc(O)c2Cc1c(O)ccc2c1C(C)(C)CCC2(C)C | 3.98 µM | 4.1 µM | 5.41 µM | 4.47 µM | 3.47 µM | 6.75 µM | 3.31 µM | 5.33 µM | 3.87 µM | 4.04 µM | – | – | – | – | – | – | – | – | – | – |
| COc1cc(OC)c(NC(=O)c2cc3ccccc3cc2O)cc1Cl | 19.4 µM | 6.84 µM | > 100 µM | 10.9 µM | 8.51 µM | 33.4 µM | 7.67 µM | 15 µM | 8.57 µM | 8.33 µM | 3.38 µM | 1.98 µM | 4.42 µM | 2.82 µM | 3.82 µM | 3.66 µM | 2.26 µM | 1.59 µM | 3.15 µM | 1.71 µM |
| CN(C)CCOC(c1ccccc1)c1ccccc1 | 51.5 µM and > 100 µM | 50.9 µM and > 100 µM | > 100 µM | > 100 µM | – | – | 50.2 µM and > 100 µM | – | 59.7 µM and > 100 µM | 47.4 µM and > 100 µM | 36.7 µM | 36 µM | – | – | – | – | 34.6 µM | – | 45.9 µM | 32.6 µM |
| CCCCCCc1nc2nc(Cl)c(Cl)nc2[nH]1 | > 100 µM | > 100 µM | > 100 µM | > 100 µM | > 100 µM | > 100 µM | > 100 µM | – | > 100 µM | > 100 µM | 5.06 µM | > 100 µM | 5.29 µM | 2.66 µM | 7.55 µM | > 100 µM | 4.26 µM | – | 9.9 µM | 4.88 µM |
| C=C(CN1CCN(c2cccc(C(F)(F)F)n2)CC1)c1ccc(C(=S)Nc2ccccc2N)cc1 | > 100 µM | > 100 µM | 4.48 µM | – | > 100 µM | > 100 µM | > 100 µM | > 100 µM | > 100 µM | > 100 µM | 4.11 µM | 8.08 µM | 1.57 µM | – | 3.74 µM | 8.08 µM | 4.64 µM | 5.71 µM | 3.13 µM | 4.14 µM |
| OCC1OC(n2cnc3c(Cl)nc(Cl)cc32)C(O)C1O (stereo unspecified) | > 100 µM | > 100 µM | > 100 µM | > 100 µM | > 100 µM | > 100 µM | > 100 µM | – | > 100 µM | > 100 µM | > 100 µM | > 100 µM | > 100 µM | > 100 µM | > 100 µM | > 100 µM | > 100 µM | – | > 100 µM | > 100 µM |
| CSCCOC(=O)C(=[N+]=[N-])c1ccc([N+](=O)[O-])cc1 | > 100 µM | > 100 µM | > 100 µM | > 100 µM | > 100 µM | > 100 µM | > 100 µM | > 100 µM | > 100 µM | > 100 µM | – | – | – | – | – | – | – | – | – | – |
| CCOc1ccccc1NC(=O)CCc1n[nH]c(=S)o1 | – | – | > 100 µM | > 100 µM | – | > 100 µM | > 100 µM | > 100 µM | > 100 µM | > 100 µM | – | – | – | – | – | – | – | – | – | – |
| O=C1OC(c2ccccc2)(c2cc(Br)c(O)c(Br)c2)c2ccccc21 (stereo unspecified) | 76.2 µM | 43.5 µM | > 100 µM | 78.5 µM | 36.4 µM | > 100 µM | > 100 µM | 72 µM | – | 42.3 µM | 25.8 µM | 17.9 µM | 32.5 µM | 28.7 µM | 18.6 µM | 28.8 µM | 50 µM | 20.3 µM | – | 15.6 µM |
| C=CN(C)S(C)(=O)=O | > 100 µM | > 100 µM | > 100 µM | > 100 µM | > 100 µM | > 100 µM | > 100 µM | > 100 µM | – | > 100 µM | > 100 µM | > 100 µM | > 100 µM | > 100 µM | > 100 µM | > 100 µM | > 100 µM | > 100 µM | – | > 100 µM |
| C=C(C)[C@@H]1CC[C@]2(CO)CC[C@]3(C)[C@H](CC[C@@H]4[C@@]5(C)CCC(NCCc6ccc(O)cc6)C(C)(C)[C@@H]5CC[C@]43C)[C@@H]12 (stereo partly specified) | 2.68 µM | – | 1.66 µM | – | – | 3.67 µM | 3.19 µM | – | 3.13 µM | 2.69 µM | 1.23 µM | – | 0.31 µM | – | – | 1.86 µM | 1.67 µM | – | 1.65 µM | 1.32 µM |
| O=c1c2c3c(sc2nc(N/N=C/c2ccc(Br)cc2)n1Cc1ccccc1)CCCC3 | > 100 µM | > 100 µM | > 100 µM | – | > 100 µM | > 100 µM | – | > 100 µM | > 100 µM | > 100 µM | 8.98 µM | 7.7 µM | 4.1 µM | – | 5.98 µM | 14.1 µM | – | 3.33 µM | 39.9 µM | 86.6 µM |
| CC1=C[P+](Cc2ccccc2)(c2ccccc2)CC1 (stereo unspecified) | > 100 µM | > 100 µM | > 100 µM | > 100 µM | > 100 µM | – | > 100 µM | > 100 µM | > 100 µM | > 100 µM | – | – | – | – | – | – | – | – | – | – |
| CCOC(=O)[C@@H](C)C[C@H](Cc1ccccc1)NC(=O)c1csc([C@@H](C[C@H](C(C)C)N(C)C(=O)[C@H](CC)NC(=O)[C@H]2CCCCN2C)OC(C)=O)n1 | > 16.7 µM | > 16.7 µM | > 16.7 µM | > 16.7 µM | – | > 16.7 µM | > 16.7 µM | > 16.7 µM | > 16.7 µM | > 16.7 µM | 0.00628 µM | 0.00367 µM | < 0.00167 µM | < 0.00167 µM | – | < 0.027 µM | 0.00515 µM | < 0.00167 µM | – | 0.0128 µM |
| CC/C(=C(/c1ccc(O)cc1)c1ccc(OCCN2CCCCC2)cc1)c1ccc(OC)cc1 | 5.46 µM | 3.91 µM | 1.16 µM | 3.61 µM | – | 6.38 µM | 11.3 µM | 23.3 µM | 29.2 µM | 2.49 µM | 1.45 µM | 1.83 µM | 0.29 µM | 1.24 µM | – | 2.14 µM | 2.82 µM | 10.4 µM | 14.7 µM | 1.13 µM |
